Test results taken from patent publication US20240252677A1, “ONE-COMPONENT DELIVERY SYSTEM FOR NUCLEIC ACIDS” (The Trustees of the University of Pennsylvania, priority 2021, published 2024).
Where two headings read alike, the source gives them in different places.

Assays:
HEK293T cells = experiment: In vitro Luc-mRNA transfection, luciferase luminescence expression in HEK293T cells; format: cell-based, human; parameters: unit not given here; settings: n=3
Outline: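 HEK293T cells were transfected with nucleoside-modified firefly luciferase mRNA at 125 ng/well delivered in the test particles. TransIT and MC3-based LNPs at equal mRNA dose served as comparators. After 24 h (18-20 h in some runs) at 37° C the cells were lysed, and luciferase luminescence was read on a luminometer, in triplicate.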

[1] = pKa measurements of individual IAJD molecules by titration; format: physicochemical; settings: ethanol saturated with NaCl, titrated with 0.1 M aqueous HCl, titration
Outline: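 pKa derived by half-equivalence-point analysis of a pH-meter titration curve: 0.1 M HCl added in 7.5 μL increments to a 1.5 mg/mL solution of each molecule in ethanol saturated with NaCl.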

BALB/c mice = settings: cited from earlier work
[2] = Stability of DNPs by DLS after storage at 5° C.; format: physicochemical; parameters: key: Excellent: the original sizes and distribution types remained almost the same after storage; Good: the original sizes and distribution types changed slightly (size difference was less than 100 nm) or the original size remained almost the same but the DLS curve showed more size distributions after storage
Method: The stability of the DNPs as assayed by DLS. All the samples are prepared in acetate buffer. The stabilities of the constructs were ranked: Excellent (in bold)—the original sizes and distribution remains almost the same after storage; Good—the original relatively big sizes became smaller or broad size distribution became narrower; Not stable—the original relatively big sizes or broad size distribution remained almost the similar level, or the original relatively small sizes became bigger or narrow size distribution became broader.

[3] = HEK293T cells, Luc-mRNA 125 ng/well
[4] = Table 15, individual IAJD molecule
[5] = Table 18, symmetric IAJDs, results available in the literature
[6] = Table 20, corresponding symmetric IAJDs (literature per Table 18)
[7] = Table 16, HEK 293T cells, 125 ng/well

| Structure (SMILES) | pKa ([1]; individual IAJD molecules) | Ranking of stability ([2]; after 19 days at 5° C.) | Luminescence (HEK293T cells; [7]) | other results |
| --- | --- | --- | --- | --- |
| CCCCCCCCCCCCCCOc1cc(COC(=O)CCCN2CCN(C)CC2)cc(OCCCCCCCCCCCCCC)c1 [IAJD 74, 3,5-Bis(tetradecyloxy)benzyl 4-(4-methylpiperazin-1-yl)butanoate] | – | – | – | Luminescence (HEK293T cells; [3]): 3,926; pKa [1, 4]: 6.32; In vivo activity (total flux, p/s) (BALB/c mice; [5]): 1.71 × 10^7 p/s; In vivo activity (total flux, p/s) (BALB/c mice; [6]): 1.71 × 10^7 p/s |
| CCCCCCCCCCCCCCCCOc1cc(COC(=O)CCCN2CCN(C)CC2)cc(OCCCCCCCCCCCCCCCC)c1 [IAJD 75, 3,5-Bis(hexadecyloxy)benzyl 4-(4-methylpiperazin-1-yl)butanoate] | – | – | – | Luminescence (HEK293T cells; [3]): 68,572; pKa [1, 4]: 6.22; In vivo activity (total flux, p/s) (BALB/c mice; [5]): 3.37 × 10^7 p/s; In vivo activity (total flux, p/s) (BALB/c mice; [6]): 3.37 × 10^7 p/s |
| CCCCC(CC)COc1cc(COC(=O)CCCN2CCN(C)CC2)cc(OCC(CC)CCCC)c1 (stereo not drawn) [IAJD 76, 3,5-Bis((2-ethylhexyl)oxy)benzyl 4-(4-methylpiperazin-1-yl)butanoate] | – | – | – | Luminescence (HEK293T cells; [3]): 17; pKa [1, 4]: 6.28; In vivo activity (total flux, p/s) (BALB/c mice; [5]): 7.81 × 10^7 p/s |
| CCCCCCCCCOc1cc(COC(=O)CCCN2CCN(C)CC2)cc(OCCCCCCCCC)c1 [IAJD 77, 3,5-Bis(nonyloxy)benzyl 4-(4-methylpiperazin-1-yl)butanoate] | – | – | – | Luminescence (HEK293T cells; [3]): 129; pKa [1, 4]: 6.4; In vivo activity (total flux, p/s) (BALB/c mice; [5]): 2.44 × 10^6 p/s |
| CCCCC(CC)COc1cc(COC(=O)CCCN2CCN(CCO)CC2)cc(OCC(CC)CCCC)c1 (stereo not drawn) [IAJD 87, 3,5-Bis((2-ethylhexyl)oxy)benzyl 4-(4-(2-hydroxyethyl)piperazin-1-yl)butanoate] | – | – | – | Luminescence (HEK293T cells; [3]): 33; pKa [1, 4]: 6.49; In vivo activity (total flux, p/s) (BALB/c mice; [5]): 3.24 × 10^7 p/s; In vivo activity (total flux, p/s) (BALB/c mice; [6]): 3.24 × 10^7 p/s |
| CCCCCCCCCCCCCCCOc1cc(COC(=O)CCCN2CCN(CCO)CC2)cc(OCCCCCCCCCCCCC)c1 [IAJD 146, 3-(Pentadecyloxy)-5-(tridecyloxy)benzyl 4-(4-(2-hydroxyethyl)piperazin-1-yl)butanoate] | 6.59 | – | 50,625 | Ranking of stability ([2]; after 27 days at 5° C.): Excellent |
| CCCCCCCCCCCCCCCOc1cc(COC(=O)CCCN2CCN(CCO)CC2)cc(OCCCCCCCCCCCCCC)c1 [IAJD 148, 3-(Pentadecyloxy)-5-(tetradecyloxy)benzyl 4-(4-(2-hydroxyethyl)piperazin-1-yl)butanoate] | 6.65 | Good | 139,420 | – |
| CCCCCCCCCCCCCCCCOc1cc(COC(=O)CCCN2CCN(CCO)CC2)cc(OCCCCCCCCCCCCCCC)c1 [IAJD 150, 3-(Hexadecyloxy)-5-(pentadecyloxy)benzyl 4-(4-(2-hydroxyethyl)piperazin-1-yl)butanoate] | 6.65 | Excellent | 134,225 | – |
| CCCCCCCCCCCCCCCCCOc1cc(COC(=O)CCCN2CCN(CCO)CC2)cc(OCCCCCCCCCCCCCCC)c1 [IAJD 152, 3-(Heptadecyloxy)-5-(pentadecyloxy)benzyl 4-(4-(2-hydroxyethyl)piperazin-1-yl)butanoate] | 6.65 | – | 88,202 | Ranking of stability ([2]; after 35 days at 5° C.): Excellent |
| CCCCCCCCCCCCCCCCCCOc1cc(COC(=O)CCCN2CCN(CCO)CC2)cc(OCCCCCCCCCCCCCCC)c1 [IAJD 154, 3-(Octadecyloxy)-5-(pentadecyloxy)benzyl 4-(4-(2-hydroxyethyl)piperazin-1-yl)butanoate] | 6.48 | – | 17,871 | Ranking of stability ([2]; after 35 days at 5° C.): Excellent |
| CCCCCCCCCCCOc1cc(COC(=O)c2cc(OCCOCCOCCCC(=O)CCCN3CCCCC3)c(OCCOCCOCCOCc3ccccc3)c(OCCOCCOCCOC(=O)CCCN3CCCCC3)c2)cc(OCC(CC)CCCC)c1 (stereo not drawn) [IAJD 155] | 7.4 | Excellent | 74 | – |
| CCCCCCCCCCCCCCOc1cc(COC(=O)c2cc(OCCOCCOCCCC(=O)CCCN3CCCCC3)c(OCCOCCOCCOCc3ccccc3)c(OCCOCCOCCOC(=O)CCCN3CCCCC3)c2)cc(OCCCCCCCCCCC)c1 [IAJD 156] | 7.43 | Excellent | 59 | – |
| CCCCCCCCCCCCCCCOc1cc(COC(=O)c2cc(OCCOCCOCCCC(=O)CCCN3CCCCC3)c(OCCOCCOCCOCc3ccccc3)c(OCCOCCOCCOC(=O)CCCN3CCCCC3)c2)cc(OCCCCCCCCCCC)c1 [IAJD 157] | 7.42 | Excellent | 47 | – |
| CCCCCCCCCCCCCCCCCOc1cc(COC(=O)c2cc(OCCOCCOCCCC(=O)CCCN3CCCCC3)c(OCCOCCOCCOCc3ccccc3)c(OCCOCCOCCOC(=O)CCCN3CCCCC3)c2)cc(OCCCCCCCCCCC)c1 [IAJD 158] | 7.38 | Excellent | 83 | – |
| CCCCCCCCCCCCCCCCCOc1cc(CNC(=O)c2cc(OCCOCCOCCOC(=O)CCCN3CCCCC3)c(OCCCOCOCCOCc3ccccc3)c(OCCOCCOCCOC(=O)CCCN3CCCCC3)c2)cc(OCCCCCCCCCCCCCCCCC)c1 [IAJD 159] | 7.4 | – | 24,055 | Ranking of stability ([2]; after 11 days at 5° C.): Excellent |
| CCCCCCCCCCCCCOc1cc(COC(=O)CCCN2CCN(C)CC2)cc(OCC(CC)CCCC)c1 (stereo not drawn) [IAJD 161, 3-((2-Ethylhexyl)oxy)-5-(tridecyloxy)benzyl 4-(4-methylpiperazin-1-yl)butanoate] | 6.38 | – | 128 | Ranking of stability ([2]; after 21 days at 5° C.): Excellent |
| CCCCCCCCCCCCCOc1cc(COC(=O)CCCN2CCN(CCO)CC2)cc(OCC(CC)CCCC)c1 (stereo not drawn) [IAJD 162, 3-((2-Ethylhexyl)oxy)-5-(tridecyloxy)benzyl 4-(4-(2-hydroxyethyl)piperazin-1-yl)butanoate] | 6.33 | – | 222,235 | Ranking of stability ([2]; after 21 days at 5° C.): Excellent |
| CCCCCCCCCCCCCCOc1cc(COC(=O)CCCN2CCN(C)CC2)cc(OCCCCCCCCCCCCC)c1 [IAJD 171, 3-(Tetradecyloxy)-5-(tridecyloxy)benzyl 4-(4-methylpiperazin-1-yl)butanoate] | 6.16 | – | 1,436 | Ranking of stability ([2]; after 21 days at 5° C.): Excellent |
| CCCCCCCCCCCCCCOc1cc(COC(=O)CCCN2CCN(CCO)CC2)cc(OCCCCCCCCCCCCC)c1 [IAJD 172, 3-(Tetradecyloxy)-5-(tridecyloxy)benzyl 4-(4-(2-hydroxyethyl)piperazin-1-yl)butanoate] | 6.03 | – | 166,377 | Ranking of stability ([2]; after 14 days at 5° C.): Excellent |
| CCCCCCCCCCCCCCCCCCOc1cc(COC(=O)CCCN2CCN(CCO)CC2)cc(OCCCCCCCCCCCCC)c1 [IAJD 178, 3-(Octadecyloxy)-5-(tridecyloxy)benzyl 4-(4-(2-hydroxyethyl)piperazin-1-yl)butanoate] | 5.97 | – | 235,419 | Ranking of stability ([2]; after 21 days at 5° C.): Excellent |

Continued, in another order:

| pKa ([1]; individual IAJD molecules) | Ranking of stability ([2]; after 19 days at 5° C.) | Structure (SMILES) | Luminescence (HEK293T cells; [7]) | other results |
| --- | --- | --- | --- | --- |
| 6.32 | Excellent | CCCCCCCCCCCCCCCOc1cc(COC(=O)CCCN2CCN(C)CC2)cc(OCCCCCCCCCCCCCC)c1 [IAJD 147, 3-(Pentadecyloxy)-5-(tetradecyloxy)benzyl 4-(4-methylpiperazin-1-yl)butanoate] | 5,844 | – |
| 6.5 | Excellent | CCCCCCCCCCCCCCCCOc1cc(COC(=O)CCCN2CCN(C)CC2)cc(OCCCCCCCCCCCCCCC)c1 [IAJD 149, 3-(Hexadecyloxy)-5-(pentadecyloxy)benzyl 4-(4-methylpiperazin-1-yl)butanoate] | 149,935 | – |
| 6.39 | – | CCCCCCCCCCCCCCCCCOc1cc(COC(=O)CCCN2CCN(C)CC2)cc(OCCCCCCCCCCCCCCC)c1 [IAJD 151, 3-(Heptadecyloxy)-5-(pentadecyloxy)benzyl 4-(4-methylpiperazin-1-yl)butanoate] | 9,310 | Ranking of stability ([2]; after 35 days at 5° C.): Excellent |
| 6.42 | – | CCCCCCCCCCCCCCCCCCOc1cc(COC(=O)CCCN2CCN(C)CC2)cc(OCCCCCCCCCCCCCCC)c1 [IAJD 153, 3-(Octadecyloxy)-5-(pentadecyloxy)benzyl 4-(4-methylpiperazin-1-yl)butanoate] | 8,860 | Ranking of stability ([2]; after 35 days at 5° C.): Excellent |
| 5.91 | – | CCCCCCCCCCCCCCCCOc1cc(COC(=O)CCCN2CCN(C)CC2)cc(OCCCCCCCCCCCCC)c1 [IAJD 173, 3-(Hexadecyloxy)-5-(tridecyloxy)benzyl 4-(4-methylpiperazin-1-yl)butanoate] | 2,302 | Ranking of stability ([2]; after 21 days at 5° C.): Good |
| 5.9 | – | CCCCCCCCCCCCCCCCCCOc1cc(COC(=O)CCCN2CCN(C)CC2)cc(OCCCCCCCCCCCCC)c1 [IAJD 177, 3-(Octadecyloxy)-5-(tridecyloxy)benzyl 4-(4-methylpiperazin-1-yl)butanoate] | 4,343 | Ranking of stability ([2]; after 21 days at 5° C.): Excellent |
